≈ marks a conversion by molar mass, not a printed value.
Key:
[1] = test system: SARS-CoV-2 (COVID-19 disease); assay: Treatment of SARS-CoV-2 positive patients with oral Nystatin tablets
VERO E6 cell line = conditions: Tables 1, 2 and FIGS. 3A, 3B
SARS-CoV = conditions: cited from earlier work
[2] = test system: SARS-CoV-2 early Wuhan strain (CMC-1); assay: microbe, parasite or virus in culture; format: cell-based

C[C@@H]1[C@H](O)[C@@H](C)/C=C/C=C/CC/C=C/C=C/C=C/C=C/[C@H](OC2O[C@@H](C)[C@H](O)[C@@H](N)[C@H]2O)C[C@@H]2OC(O)(C[C@@H](O)[C@H](O)CC[C@@H](O)C[C@@H](O)C[C@@H](O)CC(=O)O[C@H]1C)C[C@H](O)[C@H]2C(=O)O (some centres unmarked) [Nystatin, nystatin]
course of complaints under treatment ([1]; Patient 1, 3×2 Nystatin tablets (500,000 IU) per day for 10 days): complaints steadily decreased and disappeared after 10 days | course of complaints under treatment ([1]; Patient 2, 3×2 Nystatin tablets (500,000 IU) per day for 15 days): free of complaints | course of complaints under treatment ([1]; Patient 3, 3×2 Nystatin tablets (500,000 IU) per day for 15 days): free of complaints | body temperature ([1]; Patient 4, 9 Apr. 2021 (day 9), one day after start of Nystatin, before 39-39.8° C.): 37.5 °C | body temperature ([1]; Patient 4, 10 Apr. 2021 (day 10)): 36.9 °C | body temperature ([1]; Patient 4, 11 Apr. 2021 (day 11)): 36.3 °C | state after treatment ([1]; Patient 4, Nystatin from 8 Apr. 2021, 3×2 tablets daily, state on 14 Apr. 2021): “post-covid” asymptomatic state | toxicity of nystatin itself to the cultured cells (VERO E6 cell line): toxic to the cultured cells | effectiveness against SARS-CoV in vivo (SARS-CoV): not proved to be effective | microscopic image of tissue culture at the end of the incubation period ([2]; CMC-1 virus treated with 60 μg/ml nystatin, FIG. 4C): both cells with lysed and intact morphology can be seen | IC50 ([2]; Severe acute respiratory syndrome coronavirus 2, Vero C1008): 60 µg/mL (≈ 64.8 µM)

— patent US20240207297A1 (priority 2021, published 2024)
